{"source": "patent US20050090471A1", "about": "“Inhibitors of cyclin-dependent kinases, compositions and uses related thereto” (GPC Biotech, Inc, priority 2001, published 2005)", "key": {"HCT-116 cells": {"tested_on": "HCT-116 cells", "assay": "BrdU incorporation into DNA (flow cytometry)", "assay_type": "cell-based, human", "set-up": "unit not given here", "conditions": "inhibition of BrdU incorporation, unit not given; for BrdU 24: analysis at 24 hours; for BrdU 48: analysis at 48 hours; for BrdU 72: analysis at 72 hours", "experimental": "This method measured the percentage of cells that incorporated the nucleotide analog, BrdU, into newly synthesized DNA as cells progressed through the S phase of the cell cycle. The inhibition of BrdU incorporation was used as a measure of a Cdlc inhibitor's effect on S phase progression and DNA replication.\n3 sets of HCT-116 cells (100,000 cells/set) were plated in T25 flasks and incubated with a test compound as above. Analysis was done at 24, 48, and 72 hours. BrdU was added to each T-25 flask from a stock of 10 mg/ml to a final concentration of 10 μM and the cells were incubated for an additional 16-18 hours at 37° C. The cells were then prepared for flow cytometric analysis according to manufacturer's protocol (BrdU Flow kit, BD-Pharmingen catalogue # 2354KK) as follows:\nCells were harvested (adherent and floating) from the T25 flasks directly into Falcon 12×75 flow cytometric tubes as above followed by fixation and permeabilization with the addition of 100 μl Cytofix/Cytoperm buffer (30 minutes, room temperature). The cells were then washed with 1 ml of Perm Wash buffer and the cell pellets were resuspended in 100 μl Cytoperm Plus buffer and incubated on ice for 10 minutes. The cells were then washed again with 1 ml of Perm Wash buffer and the fixation was repeated in 100 μl of Cytofix/Cyto Perm buffer for 10 minutes at room temperature. The cells were then washed with 1 ml of Perm Wash buffer. The cells were next treated for one hour at 37° C. with 100 μl DNase to expose incorporated BrdU followed by another wash step with 1 ml of Perm Wash buffer. […] Cells were protected from light and incubated at room temperature for 20-30 minutes. Following the incubation, the cells were washed with 1 ml of Perrn Wash buffer, resuspended in 300 μl of 2% FBS in PBS, and analyzed on the flow cytometer."}, "[1]": {"tested_on": "NCI panel of 60 cell lines", "assay": "NCI panel of human tumor cell lines (SRB assay), MG-MID", "assay_type": "cell-based", "conditions": "48 hours incubation with compound", "description": "The evaluation of compounds at the National Cancer Institute in their panel of 60 cell lines provides a wealth of information regarding efficacy in a wide range of tumor types and genetic backgrounds. Included within this panel are cell lines derived from leukemia, melanoma and cancers of the lung, colon, brain, ovary, breast, prostate and kidney. Use of this panel provides a measure of the efficacy of compounds in cells with alterations in many genes that are associated with neoplastic transformation including p53 and Her2/Neu as well as those involved in metabolism and those which confer multi-drug resistance. The data generated in these cell lines with the protocol described below can be used to evaluate the activity of compounds.\nCells were grown in RPMI-1640 10% FCS and plated in 96 well micro-titer plates at densities ranging from 5,000 to 40,000 cells/well. The plates were incubated for 24 hours at 37° C., 5% CO2 for 24 hours. Media containing twice the desired final concentration of the compound (5 doses spanning 4 logs) was prepared and 100 μl was added to each well containing 100 μl media plus cells to yield the desired final concentration. The plates were then incubated for an additional 48 hours.\nThe effect of the compound on cellular viability was determined with the Sulforhodamine B (SRB) assay which measures total protein. Cells were fixed with cold TCA to a fmal concentration of 10% and incubated at 4° C. for 60 minutes. The supernatant was discarded and the plates were washed five times with water and air-dried. SRB solution at […] in 1% acetic acid was added to each well and the plates were incubated for 10 minutes at room temperature. The plates were washed five times with 1% acetic acid and air-dried. The bound stain was solubilized with 10 mM trizma base and the absorbance was read on a plate reader at […]."}, "arrested IMR90 cells": {"tested_on": "arrested IMR90 cells", "assay": "Arrested cell assay (serum starvation), IMR90", "assay_type": "cell-based, human", "set-up": "unit not given here", "conditions": "serum-starved arrested cells; unit not given", "experimental": "Cyclin-dependent kinase (Cdk) activity is required to promote the progression of cells through distinct phases of the cell division cycle. The proliferation of normal, non-transformed, cells in culture requires the presence of growth factors, the removal of which, through serum deprivation, leads to a loss of Cdlc activity and consequent exit from the cell cycle as cells enter the quiescent phase, Go.\nIMR90 cells were plated in triplicate for each compound concentration to be tested in MEM-α media containing 10% fetal calf serum at a density of either 2,000 or 20,000 cells per well in 24-well dishes and incubated overnight at 37° C., 5% CO2. The media was removed from the 20,000 cell-per-well dish, cells were washed once with serum-free media, and serum-fiee media was placed on cells. The plates containing cells both in the presence and absence of serum were incubated for 3 additional days.\nTo ensure that the cells had indeed exited the cell cyde upon serum withdrawal, the percentage of BrdU positive cells, indicative of those progressing through S phase, was determined in each experiment. For the purpose of this experiment, cellular viability was evaluated simultaneously with the use of SNARF-1, a fluorescent substrate of intracellular esterases which are only active in viable cells. Together, the evaluation of BrdU incorporation and SNARF-1 cleavage by flow cytometry provided an assessment of the viability of arrested cells on a single cell basis. For this analysis, the cells were stained with SNARF-1 as follows and then prepared for determination of BrdU incorporation as described above.\nHCT-116 and IMR90 cells were plated at the density described below in T25 flasks in serum-containing media (RPMI-1640 or MEM-a with 10% FCS, respectively). After 24 hours of growth, the media was removed and, after washing the cells, replaced with serum-free media. • HCT-116+FCS 5,000 cells • HCT-116−FCS 100,000 cells • IMR90+FCS 100,000 cells • IMR90−FCS 200,000 cells\nThe IMR90 cells were grown for an additional 3 days and the HCT-116 cells were grown for an additional 6 days before pulsing with BrdU. A 50 μg aliquot of SNARF-1 (Molecular Probes catalog #C1272) was dissolved in 50 μl DMSO at room temperature for 10 minutes and then diluted into 10 ml PBS. The SNARF-1 was further diluted 1:64,000 before 200 μl was added to each tube of cells which had been cultured in the presence or absence of serum and pulsed with BrdU for 20 hours. The cells were incubated at 37° C. for 30 minutes and then washed with 3 ml of PBS.\nThese cells were then fixed and prepared for the measurement of BrdU incorporation as described above. The percentage of viable (FL-2) and BrdU positive (FL-1) cells was determined on a FACScan flow cytometer."}}, "data": [{"molecule": "Cl.Cl.Cl.O=C(Nc1cccc2c1C(=O)c1c-2n[nH]c1-c1ccc(OCCN(CCO)CCO)cc1)NN1CCOCC1", "note": "[H]", "values": [{"measurement": "BrdU 24", "setting": "HCT-116 cells", "result": "<1"}, {"measurement": "BrdU 48", "setting": "HCT-116 cells", "result": "<1"}, {"measurement": "BrdU 72", "setting": "HCT-116 cells", "result": "<1"}, {"measurement": "NCI panel MG-MID", "setting": "[1]", "result": "<0.1", "unit": "µM"}, {"measurement": "Arrested cell IMR90", "setting": "arrested IMR90 cells", "result": ">1.0"}]}, {"molecule": "CN1CCN(NC(=O)Nc2cccc3c2C(=O)c2c-3n[nH]c2-c2ccc(OCCN3CCOCC3)cc2)CC1.Cl.Cl", "note": "[Q]", "values": [{"measurement": "BrdU 24", "setting": "HCT-116 cells", "result": "<0.1"}, {"measurement": "BrdU 48", "setting": "HCT-116 cells", "result": "<0.1"}, {"measurement": "BrdU 72", "setting": "HCT-116 cells", "result": "<0.1"}, {"measurement": "NCI panel MG-MID", "setting": "[1]", "result": "<0.1", "unit": "µM"}, {"measurement": "Arrested cell IMR90", "setting": "arrested IMR90 cells", "result": ">0.1"}]}, {"molecule": "CC(C)N1CCN(CCOc2ccc(-c3[nH]nc4c3C(=O)c3c(NC(=O)NN5CCOCC5)cccc3-4)cc2)CC1.Cl.Cl.Cl", "note": "[E]", "values": [{"measurement": "BrdU 24", "setting": "HCT-116 cells", "result": "<0.01"}, {"measurement": "BrdU 48", "setting": "HCT-116 cells", "result": "<0.1"}, {"measurement": "BrdU 72", "setting": "HCT-116 cells", "result": "<0.1"}, {"measurement": "NCI panel MG-MID", "setting": "[1]", "result": "<0.1", "unit": "µM"}, {"measurement": "Arrested cell IMR90", "setting": "arrested IMR90 cells", "result": ">0.1"}]}, {"molecule": "CC(C)N1CCN(Cc2cc(-c3[nH]nc4c3C(=O)c3c(NC(=O)NN5CCOCC5)cccc3-4)ccc2O)CC1.Cl.Cl.Cl.Cl", "note": "[K]", "values": [{"measurement": "BrdU 24", "setting": "HCT-116 cells", "result": "<0.1"}, {"measurement": "BrdU 48", "setting": "HCT-116 cells", "result": "<0.1"}, {"measurement": "BrdU 72", "setting": "HCT-116 cells", "result": "<0.1"}, {"measurement": "NCI panel MG-MID", "setting": "[1]", "result": "<0.1", "unit": "µM"}, {"measurement": "Arrested cell IMR90", "setting": "arrested IMR90 cells", "result": ">1.0"}]}, {"molecule": "CC(C)c1nn(-c2c(Cl)cccc2Cl)c2nc(Cc3ccc(O)c(CN4CCN(C(C)C)CC4)c3)[nH]c(=O)c12.Cl.Cl", "note": "[Compound C]", "values": [{"measurement": "BrdU 24", "setting": "HCT-116 cells", "result": "<0.1"}, {"measurement": "BrdU 48", "setting": "HCT-116 cells", "result": "<0.1"}, {"measurement": "BrdU 72", "setting": "HCT-116 cells", "result": "<1"}, {"measurement": "NCI panel MG-MID", "setting": "[1]", "result": "<0.1", "unit": "µM"}, {"measurement": "Arrested cell IMR90", "setting": "arrested IMR90 cells", "result": ">1.0"}]}, {"molecule": "Cl.Cl.Cl.O=C(Nc1cccc2c1C(=O)c1c-2n[nH]c1-c1ccc(OCCN2CCCC2)cc1)NN1CCOCC1", "note": "[Compound I]", "values": [{"measurement": "BrdU 24", "setting": "HCT-116 cells", "result": "<0.01"}, {"measurement": "BrdU 48", "setting": "HCT-116 cells", "result": "<0.1"}, {"measurement": "BrdU 72", "setting": "HCT-116 cells", "result": "<0.1"}, {"measurement": "NCI panel MG-MID", "setting": "[1]", "result": "<0.1", "unit": "µM"}, {"measurement": "Arrested cell IMR90", "setting": "arrested IMR90 cells", "result": ">1.0"}]}, {"molecule": "CCCN(CCOc1ccc(-c2[nH]nc3c2C(=O)c2c(NC(=O)NN4CCOCC4)cccc2-3)cc1)CC1CC1.Cl.Cl.Cl", "note": "[G]", "values": [{"measurement": "BrdU 24", "setting": "HCT-116 cells", "result": "<0.01"}, {"measurement": "BrdU 48", "setting": "HCT-116 cells", "result": "<0.1"}, {"measurement": "BrdU 72", "setting": "HCT-116 cells", "result": "<0.1"}, {"measurement": "NCI panel MG-MID", "setting": "[1]", "result": "<0.1", "unit": "µM"}, {"measurement": "Arrested cell IMR90", "setting": "arrested IMR90 cells", "result": ">0.1"}]}, {"molecule": "CN1CCN(NC(=O)Nc2cccc3c2C(=O)c2c-3n[nH]c2-c2ccc(OCCN3CCCC3)cc2)CC1.Cl.Cl.Cl", "note": "[F]", "values": [{"measurement": "BrdU 48", "setting": "HCT-116 cells", "result": "<0.1"}, {"measurement": "BrdU 72", "setting": "HCT-116 cells", "result": "<1"}, {"measurement": "NCI panel MG-MID", "setting": "[1]", "result": "<0.1", "unit": "µM"}, {"measurement": "Arrested cell IMR90", "setting": "arrested IMR90 cells", "result": ">1.0"}]}]}
